What was measured:
Assay type in all cases: in vivo
[1] = tested on: Tobacco Budworm [Heliothis virescens (Fabricius)] eggs; test: Tobacco budworm egg test (TBW-E); details: percent in solution
[2] = tested on: Housefly [Musca domestica]; test: Housefly insecticidal test (HF); details: per 25 female houseflies, 48 hours
[3] = tested on: Aster Leafhopper [Macrosteles fascifrens (Stal)]; test: Aster leafhopper test (LH); details: adults/nymphs, 48 hours, percent in solution
[4] = tested on: Cabbage Looper [Trichoplusia ni (Hubner)]; test: Cabbage looper test (CL); details: second-instar larvae, 3-5 days, percent in solution
[5] = tested on: Maize weevil [Sitophilus Zeamais (Motschulsky)]; test: Maize weevil test (MW); details: adult weevils, treated corn seeds, 48 hours, percent in solution
Summary of the method: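 Adult weevils (10) were placed with four corn seeds that had been dipped 2-3 s in compound dissolved in 50:50 acetone:water, then dried, and held at about 25° C. Mortality was scored at 48 h. LC50 was taken from dosage-mortality curves and expressed as percent compound in solution, from a 0.01% top concentration.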

SMILES	LC50 TBW E [1] [%]	LC50 HF [2] [µg]	LC50 LH [3] [%]	LC50 CL [4] [%]	LC50 MW [5] [%]
CCc1cccc(N=C(OCc2cccc(Oc3ccccc3)c2)C(C)(C)C)c1 [Compound 162]	> 0.1	> 100	> 0.05	0.035	
CC(C)C(=Nc1cc(Cl)c(Cl)c(Cl)c1)OCc1cccc(Oc2ccccc2)c1 [Compound 20]	< 0.1	64	0.003	0.0025	
CC(C)(Cl)C(=Nc1ccc(C#N)c(Cl)c1)OCc1cccc(Oc2ccccc2)c1 [Compound 108]	> 0.1	44	> 0.01	0.002	
Fc1ccc(N=C(OCc2cccc(Oc3ccccc3)c2)C(Cl)=C(Cl)Cl)cc1 [Compound 49]	> 0.05	> 100	> 0.05	0.007	
CC(C)C(=Nc1cccc(C(F)(F)F)c1)OCC#CCOc1ccccc1 [Compound 548]	> 0.1	> 100	> 0.05	< 0.1	
CC(C)C(=Nc1cccc([N+](=O)[O-])c1)OCc1cccc(Oc2ccc(Cl)cc2)c1 [Compound 271]	0.1	27	> 0.05	0.0004	
CC(C)C(=Nc1ccc(I)cc1)OCc1cccc(Oc2ccccc2)c1 [Compound 137]	0.04	18	0.008	0.003	
CC(C)(C)C(=Nc1ccc(Br)cc1)OCc1cccc(Oc2ccccc2)c1 [Compound 135]	> 0.1	> 100	> 0.05	0.004	
Fc1ccc(Oc2cccc(COC(=Nc3ccc(F)c(Cl)c3)C(F)(F)C(F)(F)F)c2)cc1 [Compound 258]	> 0.1	> 100	> 0.05	0.003	
CCc1cccc(N=C(OCc2cccc(Oc3ccccc3)c2)C(C)C)c1 [Compound 154]	0.1	25	> 0.05	0.004	
CC(C)C(=Nc1c(F)c(F)cc(F)c1F)OCc1cccc(Oc2ccccc2)c1 [Compound 57]	0.1	> 100	0.0005	0.004	
CC(C)C(=Nc1ccc(Cl)cc1)OC(C)c1cccc(Oc2ccccc2)c1 (centres unmarked) [Compound 457]	> 0.05	> 100	> 0.05	0.009	
CC(C)C(=Nc1ccc2c(c1)OCO2)OCc1cccc(Oc2ccc(F)cc2)n1 [Compound 465]	0.027	8	0.0025	0.0017	
CSc1ccc(Oc2cccc(COC(=Nc3ccc(F)cc3)C(C)C)c2)cc1 [Compound 257]	> 0.1	> 100	> 0.05	0.008	
Cc1ccc(Oc2cccc(COC(=Nc3ccc(F)c(Cl)c3)C(C)C)c2)cc1 [Compound 225]	> 0.1	> 100	> 0.05	0.0025	
CC(C)C(=Nc1ccc(Br)cc1)OCc1cccc(Oc2ccccc2)c1 [Compound 131]	> 0.1	17	0.005	0.0045	
CC(C)C(=Nc1ccc(OC(F)(F)F)cc1)OCc1cccc(Cc2ccccc2)c1 [Compound 538]		75	> 0.05	> 0.1	> 0.01
CCCC(=Nc1ccc2c(c1)OCO2)OCc1cccc(Oc2ccccc2)c1 [Compound 188]	> 0.1	12	> 0.05	0.002	

SMILES	LC50 TBW E [1] [%]	LC50 HF [2] [µg]	LC50 LH [3] [%]	LC50 CL [4] [%]	LC50 MW [5] [%]
COc1c(Cl)cc(N=C(OCc2cccc(Oc3ccccc3)c2)C(C)C)cc1Cl [Compound 91]	> 0.01	37	0.003	0.002	
CC(C)C(=Nc1cc(Cl)cc(Cl)c1)OCc1cccc(Oc2ccccc2)c1 [Compound 16]	0.04	20	0.0005	0.004	
CCc1ccc(N=C(OCc2cccc(Oc3ccc(F)cc3)c2)C(C)C)cc1 [Compound 159]	0.08	25	0.0025	0.001	
CC(C)C(=Nc1cc(F)ccc1Cl)OCc1ccc(F)c(Oc2ccc(F)cc2)c1 [Compound 303]	> 0.1	> 100	0.0005	0.0015	
CCc1ccc(N=C(OCc2cccc(Oc3ccccc3)c2)C(C)C)cc1 [Compound 161]	0.07	15	0.002	0.0014	
CC(C)C(=Nc1ccc(C(C)C)cc1)OCc1cccc(Oc2ccc(F)cc2)c1 [Compound 228]	> 0.1	> 100	> 0.05	0.0025	
CC(C)CC(=Nc1cc(Cl)cc(Cl)c1)OCc1cccc(Oc2ccccc2)c1 [Compound 10]	> 0.1	> 100	> 0.05	0.01	
COc1ccc(OC)c(N=C(OCc2cccc(Oc3ccccc3)c2)C(C)C)c1 [Compound 69]	> 0.1	> 100	> 0.05	0.09	
CC(C)C(=Nc1ccc(OC(F)(F)F)cc1)OCc1cccc(Oc2ccccc2)c1 [Compound 70]	0.01	< 100	> 0.05	< 0.1	
Cc1c(Cl)cc(N=C(OCc2cccc(Oc3ccccc3)c2)C(C)C)cc1Cl [Compound 101]	> 0.1	81	0.0008	0.0045	
Cc1ccc(N=C(OCc2cccc(Oc3ccccc3)c2)C(C)C)cc1Cl [Compound 90]	0.016	> 100	0.001	> 0.1	
CC(C)C(=Nc1c(Cl)cc([N+](=O)[O-])cc1Cl)OCc1cccc(Oc2ccccc2)c1 [Compound 92]	> 0.1	> 100	> 0.05	0.015	
CC(C)C(=Nc1ccc(C(F)(F)F)c(Cl)c1)OCc1cccc(Oc2ccccc2)c1 [Compound 83]	> 0.1	> 100	> 0.05	0.007	
CC(C)C(=Nc1ccc2c(c1)CCC2)OCc1cccc(Oc2ccccc2)c1 [Compound 187]	> 0.1	15	0.0025	0.0025	
Clc1ccc(N=C(OCc2cccc(Oc3ccccc3)c2)C(Cl)Cl)c2ccccc12 [Compound 98]	0.1	> 100	> 0.05	0.016	
CC(C)C(=Nc1c(F)cc(F)cc1Br)OCc1cccc(Oc2ccccc2)c1 [Compound 129]	> 0.1	> 100	0.01	0.005	
CC(C)C(=Nc1ccc2c(c1)OC(C)(C)O2)OCc1ccc(F)c(Oc2ccccc2)c1 [Compound 242]	> 0.1	< 100	> 0.05	0.00025	

Source: patent US5089623A, “Certain imidate insecticides” (Imperial Chemical Industries Plc, priority 1990, dated 1992)
